Results on four compounds are retold here after publication PMC12736951, “Design, Synthesis, and Biological Evaluation of 6″-Modified Apramycin Derivatives to Overcome Aminoglycoside Resistance” (Pharmaceutics, 2025).

Molecules are shown by their SMILES.

Test [1] has as its system S. aureus ATCC 29213. In words: MIC, broth microdilution. The test is classed as cell-based. As to conditions: Staphylococcus aureus, ATCC29213, Table 1. The text has this:
(§1) The microbial strains used in this study were obtained from the collection of the Gause Institute of New Antibiotics. The control strains included in the analysis were S. aureus ATCC 29213, E. coli ATCC 25922, P. aeruginosa ATCC 27853, M. smegmatis ATCC 607. Clinical isolates E. coli MAR17-1350, K. pneumoniae APEX-5, K. pneumoniae MAR14-3395, and K. pneumoniae MAR18-1752 with multidrug resistance, including resistance to aminoglycosides were kindly provided by the Research Institute of Antimicrobial Chemotherapy (RIAC) of the Smolensk State Medical University, Smolensk. The microbial cultures were stored at −75 °C in trypticase soy broth (Becton, Dickinson, France) containing 10–15% glycerol. Storage was carried out in accordance with CLSI guidelines. Prior to experimentation, the bacterial strains were revived from cryopreservation by inoculating them onto trypticase soy agar (Becton, Dickinson, France) and incubating at (36 ± 1) °C for 16–24 h. Individual morphologically homogeneous colonies were then suspended in sterile physiological saline, and the turbidity of the suspension was adjusted to 0.5 McFarland units using a DEN-1 spectrophotometer (Biosan, Riga, Latvia), which corresponds to a concentration of 1.5 × 10^8 CFU/mL.
(§2) The samples were dissolved in sterile distilled water, depending on the physicochemical properties of the compounds under investigation, to a concentration of 10,000 µg/mL. Working solutions were then prepared by serial dilution, resulting in concentrations ranging from 64 µg/mL to 0.125 µg/mL.
(§3) Activity was evaluated by determining the minimum inhibitory concentration (MIC) values using the microdilution method in Mueller–Hinton Broth (Beckton and Dickinson, Le Pont-de-Claix, France), in accordance with the standard procedure for assessing the antimicrobial susceptibility of microorganisms.
(§4) The analysis was conducted in 96-well microtiter plates (Medpolymer, Saint Petersburg, Russia). The bacterial inoculum was introduced within 15 min of preparation. MIC values were determined after incubation for 15–18 h at (36 ± 1) °C. Microbial growth in the presence of the tested compounds was compared to the growth control (without exposure to the test samples). The MIC was defined as the lowest concentration at which visible microbial growth was inhibited.
(§5) To ensure the accuracy of the results, the control antibiotics kanamycin A, gentamycin, and tobramycin (Abcr GmbH, Karlsruhe, Germany) were included, along with standard reference strains: E. coli ATCC 25922. The MIC values for kanamycin A were determined as follows: E. coli ATCC 25922—1–4 µg/mL [22]. For gentamycin, the MIC values were E. coli ATCC 25922–0.25–1 µg/mL [23]. For tobramycin, the MIC values were E. coli ATCC 25922–0.25–1 µg/mL [23]. The MIC values of the reference strains were required to fall within the acceptable ranges specified in [24], provided that standard assay conditions were maintained.
Background: In broth dilution the organism is exposed to a series of concentrations in liquid medium.

Test [2] has as its system P. aeruginosa ATCC 27853. In words: MIC, broth microdilution. Type of test: cell-based. As to conditions: Pseudomonas aeruginosa, ATCC27853, Table 1.
Source text: as §1, §2, §3, §4, §5

Test [3] deals with E. coli JW5503 EF-G P610T. In words: MIC against aminoglycoside-resistant EF-G mutant. The test is classed as cell-based. The note with it: Escherichia coli. How it is done: (§6) The determination of the MIC values was performed on five strains from the working collection of MSU. E. coli JW5503 [25], which lacked a kanamycin resistance cassette that had been removed as per the method outlined in [26], and a strain derived from this strain through in vitro selection with kanamycin. […] Strains containing AG-modifying enzymes were obtained through the transformation of E. coli JW5503 with plasmids that carried cassettes of resistance, namely pCRISPomyces-2–AAC(3)-IV (Addgene #61737), pdualrep2–APH(3′)-II [27] and pt67–ANT(3″). The MIC determination was performed as described for JW5503 in [19].

In test [4] the test system is E. coli S30 Extract System, firefly luciferase synthesis. The experiment in a line: Cell-free translation inhibition assay. Type of test: biochemical. As to conditions: for inhibition of protein synthesis in vitro (firefly luciferase): 0.4 μM, E. coli S30 extract; for inhibitory effect on translation relative to apramycin (1): equivalent concentrations (0.4 μM). How it is done:
The inhibitory effects of the compounds under investigation on in vitro firefly luciferase synthesis were evaluated using the E. coli S30 Extract System for Linear Templates (Promega, Madison, WI, USA), as previously described. The working concentration for all tested compounds in the in vitro translation reaction was 0.4 μM. As all compounds were diluted in water, it was used as the negative control.

Test [5] concerns E. coli JW5503 kanS. The experiment in a line: MIC against E. coli JW5503 parent strain. Type of test: cell-based. The note with it: Escherichia coli, JW5503KANS. As to the method:
as §6

Test [6] relates to E. coli JW5503 with pJC27 β-galactosidase codon 537 reporter. In words: Translation accuracy using β-galactosidase reporters. The test is classed as cell-based. The note with it: 0.1 μL of 50 mg/mL, 37 °C, 18 h, codon 537 GAC/GGG reporters. How it is done: To evaluate translation accuracy in the presence of antibiotics, E. coli JW5503 (kanamycin resistance cassette removed as per) was transformed with pJC27 plasmids. […] The synthesis of active β-galactosidase depends on translation errors occurring (when codons GAC and GGG are read as GAA). Petri dishes (9 cm) containing 20 mL of solid LB agar (1.5%), supplemented with chloramphenicol (11.3 μg/mL) and X-Gal (80 μg/mL), were prepared. A secondary soft-agar layer comprising 3.5 mL of LB agar (0.6%) supplemented with 11.3 μg/mL chloramphenicol and 0.5 mL of liquid culture (A600~1.0) was added and allowed to solidify. Antibiotics were applied to the plates in 0.1 μL aliquots at a concentration of 50 mg/mL for tobramycin, streptomycin, kanamycin, and apramycin, and for 5a, 5b, 8a, and 8b. The plates were then incubated at 37 °C for 18 h. […] The results were documented using a Samsung Galaxy Tab A71 camera.

In test [7] the test system is E. coli JW5503 KanR. The experiment in a line: MIC against transformant carrying APH(3′)-II. Type of test: cell-based. As to conditions: Escherichia coli, JW5503KANR. As to the method: as §6

For `CNC1C(OC2OC(CNCCN)C(N)C(O)C2O)OC2CC(N)C(OC3C(N)CC(N)C(O)C3O)OC2C1O` (centres unmarked) [Compound 5a, 6″-((2-Aminoethyl-1)-amino)-6″-deoxyapramycin acetate], the minimal inhibitory concentration (MIC) in test [1] is 2 µg/mL; in test [2], 8 µg/mL; in test [3], 32 µg/mL; in test [5], 16 µg/mL; in test [7] it was 16 µg/mL. Moreover, the “inhibition of protein synthesis in vitro (firefly luciferase)” value (“inhibition of protein synthesis in vitro” below) in test [4] is given as “inhibited protein synthesis in vitro”. For the same compound, the “inhibitory effect on translation relative to apramycin (1)” value in test [4] is reported as “approximately one order of magnitude weaker”. In test [6], the “induction of translation errors (blue staining at edge of inhibition zone)” value is listed as “caused blue staining of the bacterial lawn”.
As to `CNC1C(OC2OC(CNCCCNC(=N)N)C(N)C(O)C2O)OC2CC(N)C(OC3C(N)CC(N)C(O)C3O)OC2C1O` (centres unmarked) [Compound 8b, 6″-((3-Guanidinopropyl-1)-amino)-6″-deoxyapramycin acetate], the minimal inhibitory concentration (MIC) in test [1] was determined as 0.5 µg/mL; in test [2] it was 8 µg/mL; in test [3] it was 64 µg/mL; in test [5], 16 µg/mL; in test [7], 16 µg/mL. In addition, in test [4], the “inhibition of protein synthesis in vitro” value is given as “inhibited protein synthesis in vitro”. Moreover, the “inhibitory effect on translation relative to apramycin (1)” value in test [4] is on record as “approximately one order of magnitude weaker”. For the same compound, the “induction of translation errors (blue staining at edge of inhibition zone)” value in test [6] was “caused blue staining of the bacterial lawn”.
`CNC1C(OC2OC(CNCCNC(=N)N)C(N)C(O)C2O)OC2CC(N)C(OC3C(N)CC(N)C(O)C3O)OC2C1O` (centres unmarked) [Compound 8a, 6″-((2-Guanidinoethyl-1)-amino)-6″-deoxyapramycin acetate]: the minimum inhibitory concentration (MIC) amounted to 0.5 µg/mL in test [1]; 8 µg/mL in test [2]; 32 µg/mL in test [3]; 8 µg/mL in test [5]; 8 µg/mL in test [7]. The “inhibition of protein synthesis in vitro” value in test [4] is reported as “inhibited protein synthesis in vitro”. Further, the “inhibitory effect on translation relative to apramycin (1)” value in test [4] is “approximately one order of magnitude weaker”. Besides, the “induction of translation errors (blue staining at edge of inhibition zone)” value in test [6] is “caused blue staining of the bacterial lawn”.
Take `CNC1C(OC2OC(CNCCCN)C(N)C(O)C2O)OC2CC(N)C(OC3C(N)CC(N)C(O)C3O)OC2C1O` (centres unmarked) [Compound 5b, 6″-((3-Aminopropyl-1)-amino)-6″-deoxyapramycin acetate]: the MIC in test [1] was determined as 2 µg/mL; in test [2], 16 µg/mL; in test [3] it was 64 µg/mL; in test [5] it was 32 µg/mL; in test [7] it was 32 µg/mL. In test [4], the “inhibition of protein synthesis in vitro” value is reported as “inhibited protein synthesis in vitro”. Also, in test [4], the “inhibitory effect on translation relative to apramycin (1)” value was “approximately one order of magnitude weaker”. Besides, the “induction of translation errors (blue staining at edge of inhibition zone)” value in test [6] is “caused blue staining of the bacterial lawn”.

As usually defined, the MIC is the smallest concentration in the dilution series that meets the test's criterion for growth inhibition.
